Laboratory results published in patent US7510850B2, “Isolation of the mitotic spindle matrix and its methods of use” (Carnegie Institution of Washington, priority 2005, dated 2009).

What was measured:
[1] = tested on: LB3-matrix; experiment: LB3-matrix assembly in egg extracts (AurA-beads plus RanGTP or sperm chromatin); type: biochemical, Xenopus
Description: Two methods were used to assay for LB3-matrix assembled in egg extracts. In the first method, spindle assembly was induced with either sperm or AurA-beads plus RanGTP. After incubation, 10 μl of egg extract was diluted into 1 ml XB buffer containing nocodazole (10 μM final concentration) and incubated at room temperature for 10 to 15 minutes to depolymerize MTs. In the second method, egg extracts were incubated with either sperm or AurA-beads plus RanGTP in the presence of 10 μM nocodazole at room temperature for the same time as for spindle assembly reactions. After incubated the egg extracts were diluted into 1 ml BRB80 buffer containing 30% glycerol. LB3-matrix assembled in both methods was spun onto coverslips through 3 ml BRB80 buffer containing 40% glycerol in the same manner as MT spin-down. The LB3-matrix were fixed with methanol (−20° C.) and stained with either polyclonal or monoclonal antibodies to LB3.
To detect the membrane in the lamin B matrix, spindles and LB3-matrices were assembled and spun onto coverslips as described above. The coverslips were incubated in BRB80 containing 20% sucrose and 1 μM Vybrant CM-Dil (Molecular Probes, V22888) for 5 minutes at room temperature and then washed briefly in BRB80 containing 20% sucrose. […]

[2] = tested on: Mouse ES cells; experiment: Mitotic arrest of mouse ES cells; type: cell-based; details: nocodazole 400 nM, about 12 hours
Description: FIG. 9: Induction of mitotic spindle matrix assembly by RanGTP and AurA-beads in mouse ES cells. Mouse ES cells were arrested in mitosis using nocodazole. 70-90% mitotic arrest can be achieved after about 12 hours of nocodazole (400 nM) treatment. The ES cells were washed in PBS and the cell pellet was snap frozen in liquid nitrogen. To make the cell lysate, an energy mix, which contains 0.5 mg/ml delta 90 cyclin B, 10 mM ATP, 100 mM creatine phosphate, 0.5 mg/ml creatine kinase, that equals to 5% of the volume of the ES cell pellet was used to resuspend the ES cell pellet. A ˜2-second sonication was used to disrupt the cell followed by centrifugation to make clarified and concentrated ES cell lysates. RanGTP and AurA-beads were added to the lysate to induce the assembly of mitotic spindle matrix. Shown are matrices that were double labeled with tubulin and lamin B, Sox2, or nanog. AurA-beads (2.8 μm) embedded in the matrices serve as reference for the scale.

[3] = tested on: mitotic spindle; experiment: Spindle assembly in Xenopus egg extract; type: biochemical; details: sperm or RanGTP plus AurA-beads; LB3T, LB3T-nls 10 μM; ΔNLB3, wild-type LB3 2 μM
Description: CSF-arrested Xenopus egg extracts, Xenopus sperm, and AurA-beads were prepared as described. […] Spindle assembly reactions were incubated at room temperature for 60 to 90 minutes with sperm or for 10 to 30 minutes with AurA-beads and RanGTP. To immunodeplete LB3, monoclonal antibody or polyclonal antibody to LB3 was coupled to protein A magnetic or agarose beads. IgG from non-immunized rabbits (Jackson Laboratory) was used for mock-depletion. To inhibit LB3 assembly with dominant negative LB3 mutants, LB3T and LB3T-nls were added at 10 μM final concentration, ΔNLB3 and wild-type LB3 were added at 2 μM final concentration to the egg extracts and incubated for 20 minutes before spindle assembly assays.

Q: For COC(=O)Nc1nc2ccc(C(=O)c3cccs3)cc2[nH]1 [nocodazole], which “sperm around which LB3-matrix was still assembled” value ([1]; MT assembly inhibited by nocodazole) is on record?
A: more than half

Q: And the mitotic arrest [2]?
A: 70-90%

Q: triton X100 was tested. Which “lamin B matrix integrity” value ([1]; 0.1% in XB containing nocodazole, 10 min at room temperature) did it give?
A: completely disrupted

B1: wild-type LB3: lamin B3, the major form of lamin B in Xenopus eggs, 6His fusion protein (protein)
chain: MATSTPSRAREHASAAQSPGSPTRISRMQEKEDLRHLNDRLAAYIERVRSLEADKSLLKIQLEEREEVSSREVTNLRQLYETELADARKLLDQTANERARLQVELGKVREEYRQLQARNSKKENDLSLAQNQLRDLESKLNTKEAELATALSGKRGLEEQLQEQRAQIAGLESSLRDTTKQLHDEMLWRVDLENKMQTIREQLDFQKNIHTQEVKEIKKRHDTRIVEIDSGRRVEFESKLAEALQELRRDHEQQILEYKEHLEKNFSAKLENAQLAAAKNSDYASATREEIMATKLRVDTLSSQLNHYQKQNSALEAKVRDLQDMLDRAHDMHRRQMTEKDREVTEIRQTLQGQLEEYEQLLDVKLALDMEINAYRKMLEGEEQRLKLSPSPSQRSTVSRASTSQTSRLLRGKKRKLDETGRSVTKRSYKVVQQASSTGPVSVEDIDPEGNYVRLLNNTEEDFSLHGWVVKRMHMSLPEIAFKLPCRFILKSSQRVTIWAAGAGAVHSPPTDLVWKSQKTWGTGDNIKITLLDSTGEECAERTLYRVIGEEGETDEDFVEEEELERQFRSQSHQSVDPSC
Q: How did the spindle assembly [3] turn out when B1 was run?
A: neither buffer control nor wild-type LB3 affected
